# Results taken from US9834755B2, “Compositions and methods for enhanced generation of hematopoietic stem/progenitor cells” (FRED HUTCHINSON CANCER RESEARCH CENTER, priority 2011, dated 2017).
# Marks after values point to notes of the source that are not given here.
# What was measured:
# [1] = test system: HSPC; conditions: culturing HSPC with SR1; cited from earlier work
# [2] = test system: mobilized peripheral blood stem cells (mPBSC); test: Ex vivo culture of mobilized peripheral blood stem cells; format: cell-based, human; conditions: mPBSC cultured 16 days
# Experimental: (§1) Human cord blood samples for research were obtained from normal deliveries under Swedish Medical Center Institutional Review Board (Seattle) approval and after consent was obtained. The units were incubated in ammonium chloride red blood cell lysis buffer (consisting of 16.6 g NH4Cl, 2 g NaHCO3 and 74.4 mg EDTA per 2L of water) and resuspended in PBS with 2% human AB serum. Cells were incubated with CD34 Microbeads from Miltenyi Biotec and purified with an Automacs (Miltenyi Biotec). Cells were then frozen and thawed at time of use with PBS+1% FBS. Pools of 2 or more cord blood units were used for all experiments. Peripheral blood stem cells (PBSC) were obtained from a single donor and cryopreserved after CD34^+ cell selection.
# Cells were cultured for 16 days in non-tissue-cultured-treated tissue culture flasks (25, 75, and 175-cm^2). Flasks were precoated with Delta1^ext-IgG (ligand preparation described in Delaney C. et al., 2005, Blood 106(8):2693-2699; and Varnum-Finney et al., 2000, J. Cell Science 113: 4313-4318), or human control IgG at 2.5 μg/ml and retronectin 5 μg/ml. Delta1^ext-IgG titrations were performed with concentrations of 0.5, 1.25 (for PBSC), 2.5, or 5 μg/ml. Flasks were incubated at 4° C. overnight or 37° C. for 2 hours and then washed with PBS and blocked with PBS 2% BSA for 30 minutes at 37° C. […]
# [3] = test system: CD34^+ CB HSPC; test: SRC frequency by limiting dilution analysis in NSG mice; format: in vivo, human; conditions: Delta1^Ext-IgG 2.5 μg/ml alone, 5 μg/ml with SR1; for No. mice engrafted, Engraftment with ≧0.5% CD34^+ cells / No. mice engrafted, Engraftment with ≧1% CD33^+ cells / No. mice engrafted, Engraftment with ≧1% CD34^+ cells / No. mice engrafted, Engraftment with ≧5% CD33^+ cells: bone marrow aspirate at 2 weeks
# Excerpt: Human cord blood (CB) samples for research were obtained from normal deliveries under Swedish Medical Center Institutional Review Board (Seattle) approval and after consent was obtained. CB samples were red blood cell depleted (Delaney et al., 2010, Nat Med 16(2):232-236), CD34 enriched using CD34^+ immunomagnetic particles (Miltenyi Biotec), purified with Automacs (Miltenyi Biotec), and cryopreserved. […] Cultures were initiated with 7×10^4 to 1.3×10^5 CD34^+ cells for 25-cm^2 flasks and with 3×10^5 CD34^+ cells for 75-cm^2 flasks. Immunofluorescence analysis was performed as described (Ohishi et al., 2002, J Clin Invest. 110(8):1165-1174) with labeled antibodies: FITC (human CD14, CD33, and Lineage); PE (human CD7, CD14, CD15, CD19, CD90, and CD123); PERCP (human CD34); APC (human CD10, CD45, IL3Ra); PECy7 (mouse CD45.1, human CD34); Alexa Fluor 700 (CD38); APC-eFluor 780 (CD45RA). Transplants were performed in sublethally irradiated (275 rad) NOD-SCID IL-2Rγ-null mice (NSG). In vivo engraftment was assessed by immunofluorescence analysis of human cell subsets (human CD45^+ murine CD45.1). On average, the total number of cells infused was 4.25×10^6/mouse for Delta1^ext-IgG alone, 1.88×10^7/mouse for SR1 alone, and 4.76×10^6/mouse for the combination. Statistical analyses were performed as indicated. For limiting dilution analysis, mice were injected with the cultured progeny of the number of CD34^+ cells indicated and bone marrow aspirates performed at 2 weeks. Two engraftment cut-offs were chosen based on percent engraftment observed in non-limiting transplantation studies. The frequency of SRCs was determined by the method of maximum likelihood with L-CALC software (StemCell Technologies) from the proportions of engrafted recipients (A, B).
# [4] = test system: CD34^+ cord blood HSPC; conditions: culturing HSPC with SR1; cited from earlier work
# [5] = test system: CD34^+ CB HSPC; test: In vivo repopulation: cultured progeny of CD34+ CB HSPC transplanted into sublethally irradiated NSG mice; parameters: species or system human
# Experimental: Sublethally irradiated NOD-SCID IL-2Rγ-null mice (obtained from an established breeding colony at the Fred Hutchinson Cancer Research Center and approved for use by the Fred Hutchinson Cancer Research Center Institutional Animal Care and Use Committee) were infused with the progeny 10,000 starting CD34^+ cells per mouse via tail vein for cord blood experiments and the progeny of 20,000 for PBSC experiments. Repopulating ability of infused cells was assessed at 2-3 weeks post-transplant by bone marrow aspiration and at 13 weeks by bone marrow harvest.
# Cells were cultured as described above and transplanted into sublethally irradiated immunodeficient NSG mice. Total human engraftment was defined as percent of human CD45^+ murine CD45.1^− cells based on bone marrow aspirate at 2 weeks post-transplant. Total myeloid engraftment was defined as percent human CD45^+CD33^+ murine CD45.1 cells on bone marrow aspirate at the same time point.
# The progeny of 1×10^4 CD34^+ cells were then transplanted into 10 sublethally irradiated NSG mice per condition and engraftment was assessed by bone marrow aspirate at 2 weeks post-transplant. Total human engraftment was defined as percent of human CD45^+ murine CD45.1^− cells based on bone marrow aspirate at 2 weeks post-transplant. Total myeloid engraftment was defined as percent human CD45^+CD33^+ murine CD45.1^− cells on bone marrow aspirate at the same time point.
# Transplants into NSG mice were performed as described above, with the cultured progeny of 1×10^4 CD34^+ cells. Cells were cultured in the presence of SR1, Delta1^Ext-IgG 2.5 μg/ml, or SR1 and Delta1^Ext-IgG (2.5 or 5 μg/ml) for 16 days.
# Cells were cultured and transplanted as described above with the progeny of 1×10^4 CD34^+ cells transplanted per mouse. Total human, progenitor cell, myeloid, and lymphoid assessments were performed on bone marrow samples. Bone marrow aspirates were performed in the mice at 2 and 8 weeks post-transplant, and mice were sacrificed for bone marrow harvest at 13 weeks.
# [6] = test system: CD34^+ CB HSPC; test: Ex vivo culture/expansion of CD34+ cord blood HSPC, cell counts and flow cytometric phenotype; format: cell-based, human
# Experimental: as §1
# Cells were cultured for 16 days in non-tissue-cultured-treated tissue culture flasks (25, 75, and 175-cm^2). Flasks were precoated with Delta1^ext-IgG (ligand preparation described in Delaney C. et al., 2005, Blood 106(8):2693-2699; and Varnum-Finney et al., 2000, J. Cell Science 113: 4313-4318), or human control IgG at 2.5 μg/ml and retronectin 5 μg/ml. Delta1^ext-IgG titrations were performed with concentrations of 0.5, 1.25 (for PBSC), 2.5, or 5 μg/ml. Flasks were incubated at 4° C. overnight or 37° C. for 2 hours and then washed with PBS and blocked with PBS 2% BSA for 30 minutes at 37° C. Cells were cultured in StemSpan serum-free expansion medium in the presence of 4 growth factors (IL6 (50 ng/ml), thrombopoietin (50 ng/ml), Flt-3 ligand (50 ng/ml), stem cell factor (50 ng/ml)) or 5 growth factors (4 growth factors plus IL3 (10 ng/ml)). SR-1 was made fresh and added to cells with all feedings at a concentration of 750 nM. Cultures in 25-cm^2 flasks were initiated with between 7×10^4 and 1.3×10^5 CD34^+ cells. Cultures in 75-cm^2 flasks were initiated with 3×10^5 CD34^+ cells. Cells were expanded to larger flasks when they exceeded cell density >1×10^6 cells/ml. Expansions typically occurred on day 7 and 10 of culture. Fresh media with cytokines was added very 3-4 days including the day prior to transplantation.
# Immunofluorescence analysis was performed as described (see Ohishi et al., 2002, J Clin Invest. 110(8): 1165-1174), with FITC-labeled antibodies against human CD3, CD14, CD15, CD33, CD34, CD90, phycoerythryin (PE)-labeled antibodies against human CD19, CD56, CD90, CD133, Glycophorin A, CXCR4, PERCP-labeled antibodies against human CD14, CD34, APC-labeled antibodies against human CD45, CD90 and PECy7 labeled antibody against mouse CD45.1.
# To determine whether Delta1^Ext-IgG and SR1 in combination were successfully able to expand CD34^+ CB HSPC ex vivo, CD34^+ cell generation, an HSPC enriched population routinely used in clinical application, was assessed at multiple time points in culture as compared to IgG control. CD34^+ CB progenitors were isolated by bead selection and Automacs and then cultured for 21 days in StemSpan serum-free expansion media supplemented with cytokines (TPO, SCF, IL-6, and Flt3-ligand at 50 ng/ml). […] Cells were cultured in the presence of SR1 (750 nM) and Delta1^Ext-IgG (0.5 or 2.5 μg/ml) or an IgG control. The engineered Notch ligand, Delta1^ext-IgG, contains the extracellular domain of Delta1 fused to the Fc portion of human IgG1 and is immobilized on the plastic surface of tissue culture flasks at varying densities. Immobilization of the Fc portion of human IgG1 served as a control construct. […] CD34^+ selected cells were seeded per flask from a pool of 2 CB units. […]
# [7] = test system: CD34+ cells; conditions: cited from earlier work
# [8] = limiting dilution analysis, maximum likelihood
compound,measurement,setting,value
"CC(C)n1cnc2c(NCCc3ccc(O)cc3)nc(-c3csc4ccccc34)nc21 [SR1, 4-(2-(2-(benzo[b]thiophen-3-yl)-9-isopropyl-9H-purin-6-ylamino)ethyl)phenol]",increase in the number of cells with the ability to repopulate immunodeficient mice,[1],17 fold
same,TNC and CD34^+ cell expansion in vitro,[2],greatest TNC and CD34^+ cell expansion
same,"No. mice engrafted, Engraftment with ≧0.5% CD34^+ cells",[3]; 1000 CD34^+ cells/mouse,1/9
same,"No. mice engrafted, Engraftment with ≧1% CD33^+ cells",[3]; 1000 CD34^+ cells/mouse,3/9
same,"No. mice engrafted, Engraftment with ≧1% CD34^+ cells",[3]; 1000 CD34^+ cells/mouse,1/9
same,"No. mice engrafted, Engraftment with ≧5% CD33^+ cells",[3]; 1000 CD34^+ cells/mouse,1/9
same,"No. mice engrafted, Engraftment with ≧0.5% CD34^+ cells",[3]; 4000 CD34^+ cells/mouse,2/9
same,"No. mice engrafted, Engraftment with ≧1% CD33^+ cells",[3]; 4000 CD34^+ cells/mouse,5/9
same,"No. mice engrafted, Engraftment with ≧1% CD34^+ cells",[3]; 4000 CD34^+ cells/mouse,1/9
same,"No. mice engrafted, Engraftment with ≧5% CD33^+ cells",[3]; 4000 CD34^+ cells/mouse,1/9
same,"No. mice engrafted, Engraftment with ≧0.5% CD34^+ cells",[3]; 20000 CD34^+ cells/mouse,7/7
same,"No. mice engrafted, Engraftment with ≧1% CD33^+ cells",[3]; 20000 CD34^+ cells/mouse,7/7
same,"No. mice engrafted, Engraftment with ≧1% CD34^+ cells",[3]; 20000 CD34^+ cells/mouse,6/7
same,"No. mice engrafted, Engraftment with ≧5% CD33^+ cells",[3]; 20000 CD34^+ cells/mouse,7/7
same,"CD33^+ SRC frequency per starting cell, Engraftment with ≧1% CD33^+ cells",[3]; [8],1/3868**
same,"CD33^+ SRC frequency per starting cell, Engraftment with ≧5% CD33^+ cells",[3]; [8],1/10063^##
same,"CD34^+ SRC frequency per starting cell, Engraftment with ≧0.5% CD34^+ cells",[3]; [8],1/8495**
same,"CD34^+ SRC frequency per starting cell, Engraftment with ≧1% CD34^+ cells",[3]; [8],1/13514^##
same,increase in CD34^+ cells,[4],50 fold
same,rapid repopulation by B-lymphoid cells (percent CD45^+CD33^-CD19^+) in comparison with Delta1^Ext-IgG alone or the combination,[5]; early time point (2 weeks),significantly enhanced
same,"human engraftment upon secondary transplantation, average CD45^+","[5]; secondary transplantation, differences not statistically significant",0.11%
same,CD34 expansion compared to IgG control,"[6]; 7, 14, 18 and 21 days in culture, alone groups: data not shown",enhanced CD34 expansion
same,total nucleated cell (TNC) expansion over IgG control and all Delta1^Ext-IgG conditions,[6]; 7-16 days in culture,enhanced
same,ex vivo generation of total nucleated cells (TNC) compared to Delta1^Ext-IgG (2.5 μg/ml) or SR1 and Delta1^Ext-IgG (5 μg/ml) combined,"[6]; SR1 750 nM, 14 days, p<0.001, p=0.04",significantly enhanced
CC(C)n1cnc2c(NCCc3ccc(O)cc3)nc(-c3cncc(F)c3)nc21 [Example 134],EC50,[7],200 nM
CC(C)n1cnc2c(NCCc3ccc(O)cc3)nc(-c3cnccc3C#N)nc21 [Example 143],EC50,[7],4300 nM
